In patent US8735386B2, “Aminopyrazoloquinazolines” (Boehringer Ingelheim International GmbH, priority 2010, dated 2014):

Biological target: cytoplasmic kinase domain of human IGF-1R (IGF-1R-GST) (Homo sapiens (Human), UniProt P08069)
Experiment: Insulin-like growth factor-1 receptor (IGF-1R)-kinase assay (DELFIA)
Assay type: biochemical
Conditions: inhibition of IGF-1R-kinase activity, read-out: IGF1R IC50
Protocol: Insulin-Like Growth Factor-1 Receptor (IGF-1R)-Kinase Assay
The kinase activity is measured by DELFIA® assay (dissociation-enhanced lanthanide fluorescence immunoassay, Perkin Elmer). […] Enzyme activity is measured in the presence of substances and a control substance. Poly-glutamate-tyrosine peptide (pEY, Sigma Aldrich) and biotinylated pEY (bio-pEY) are used as reaction substrates.
After 40 min at RT the reactions are stopped with 50 μL of stop solution (250 mM EDTA, 20 mM HEPES pH 7.4). 90 μL from each reaction are transferred onto streptavidin-coated 96-well plates. After 120 min incubation at RT the plates are washed three times with 200 μL phosphate-buffered saline (PBS) per well. The plates are incubated for 60 min with 100 μL of europium-coupled antibody against phospho-tyrosine (diluted 1/2000 in Perkin Elmer DELFIA assay buffer) per well. The plates are washed three times with 200 μL per well of DELFIA washing buffer. 100 μL DELFIA Enhancement Solution (Perkin Elmer) is added to each well, and the plates are incubated for 10 min. The fluorescence signal is measured with a Wallac Victor TRF Reader. IC50 values for the inhibition of the IGF-1R-kinase activity are calculated using the programmes Fifty (Version 2) and GraphPad (Version 3.0).

Sequence of cytoplasmic kinase domain of human IGF-1R (IGF-1R-GST) (P08069 964-1367 limits assumed): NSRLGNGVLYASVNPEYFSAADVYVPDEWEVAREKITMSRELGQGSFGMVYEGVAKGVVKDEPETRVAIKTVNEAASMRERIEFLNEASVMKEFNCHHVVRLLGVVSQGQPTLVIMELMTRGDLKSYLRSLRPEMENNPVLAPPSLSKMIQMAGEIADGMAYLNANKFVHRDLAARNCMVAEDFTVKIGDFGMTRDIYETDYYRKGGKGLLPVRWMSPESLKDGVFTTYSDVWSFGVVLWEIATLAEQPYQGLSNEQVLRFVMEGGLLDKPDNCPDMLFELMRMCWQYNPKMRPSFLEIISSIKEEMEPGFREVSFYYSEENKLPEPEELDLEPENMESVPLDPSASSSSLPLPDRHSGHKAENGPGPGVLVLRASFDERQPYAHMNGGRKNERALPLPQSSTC

**Q.** Which IC50 does the source give for `CCOc1cc(C(=O)NC)ccc1Nc1ncc2c(n1)-c1c(nn(C)c1-c1ccccc1)CC2` [III-3] here?
**A.** 0.092 µM

Test system: TC-71 (Ewing's sarcoma) cells
Experiment: cells
Conditions: Homo sapiens, TC-71, 72 h, read-out: EC50 on TC-71 cells
Protocol: Cell Proliferation Assays
Published scientific data has described that interference with the Insulin-like Growth Factor-1 Receptor (IGF-1R) signaling pathway reduces the proliferation of TC-71 cells. Therefore TC-71 cells served as a positive control cell line for monitoring the activity of compounds against IGF-1R-mediated cell proliferation.
2000 TC-71 cells or 1000 HCT 116 cells were seeded per well in 180 μL IMDM+10% foetal calf serum (FCS)+penicillin/streptomycin into 96-well microtitre plates. The plates were placed in a cell culture incubator (37° C. in a humidified atmosphere of 95% […]/5 CO2) overnight. The following day, serial dilutions of compounds, prepared in duplicates, were transferred onto the cell layers (controls without compound). The cells were cultivated for a further 72 h in the cell culture incubator. 20 μL of Alamar Bluet™ (Serotec Ltd, Düsseldorf, Germany) was added to each well and the plates incubated for 7 h in the cell culture incubator.

**Q.** How did the EC50 turn out when `CC1Cc2nn(C)c(Cc3ccccc3Cl)c2-c2nc(Nc3cnn(C4CCNCC4)c3)ncc21` (racemic) [IV-2a] was run?
**A.** < 3 µM

**Q.** `COC(=O)c1ccc(Nc2ncc3c(n2)-c2c(nn(C)c2-c2ccccc2Cl)CC3)c(OC)c1` [Compound I-3] was tested. Which EC50 did it give?
**A.** < 3 µM

**Q.** With `COc1cc(C(=O)NC2CC(N3CCN(C)CC3)C2)ccc1Nc1ncc2c(n1)-c1c(nn(C)c1-c1ccccc1Cl)CC2` (stereo not drawn) [III-38] as the compound, how does the EC50 read?
**A.** < 3 µM

**Q.** `CC(=O)N1CCC(N2CCC(n3cc(Nc4ncc5c(n4)-c4c(nn(C)c4Cc4ccccc4Cl)CC5C)cn3)CC2)CC1` (stereo not drawn) [IV-9b] was tested. Which EC50 did it give?
**A.** < 3 µM

**Q.** `COc1cc(C(=O)NC2CCN(C)CC2)ccc1Nc1ncc2c(n1)-c1c(nn(C)c1-c1ccccc1Cl)CC2C` (racemic) [Compound I-157, 4-[[9-(2-chlorophenyl)-5,8-dimethyl-5,6-dihydropyrazolo[3,4-h]quinazolin-2-yl]amino]-3-methoxy-N-(1-methylpiperidin-4-yl)benzamide] was tested. Which EC50 did it give?
**A.** < 3 µM

**Q.** How did the EC50 turn out when `CC1Cc2nn(C)c(-c3ccccc3Cl)c2-c2nc(Nc3ccn(C)n3)ncc21` (racemic) [Compound I-42, 9-(2-chlorophenyl)-5,8-dimethyl-N-(1-methylpyrazol-3-yl)-5,6-dihydropyrazolo[3,4-h]quinazolin-2-amine] was run?
**A.** < 3 µM

**Q.** For `Cc1ccsc1-c1c2c(nn1C)CCc1cnc(Nc3ccn(CCN(C)C)n3)nc1-2` [Compound I-189, N-[1-(2-dimethylaminoethyl)pyrazol-3-yl]-8-methyl-9-(3-methylthiophen-2-yl)-5,6-dihydropyrazolo[3,4-h]quinazolin-2-amine], which EC50 is on record?
**A.** < 3 µM

**Q.** With `COc1cc(C(=O)NC2CCN(C)CC2)ccc1Nc1ncc2c(n1)-c1c(nn(C)c1Cc1c(Cl)cccc1Cl)CC2` [III-107] as the compound, how does the EC50 read?
**A.** < 3 µM

**Q.** For `Cn1nccc1Nc1ncc2c(n1)-c1c(nn(C)c1-c1ccccc1Cl)CC2` [Compound I-23], which EC50 is on record?
**A.** < 3 µM

**Q.** `Cc1cc(Nc2ncc3c(n2)-c2c(nn(C)c2-c2ccc(OC(F)F)cc2)CC3)nn1C` [Compound I-294] was tested. Which EC50 did it give?
**A.** < 3 µM

**Q.** Which EC50 does the source give for `COc1cc(C(=O)O)ccc1Nc1ncc2c(n1)-c1c(nn(C)c1-c1ccccc1Cl)CC2` [II-18] here?
**A.** < 3 µM

**Q.** `CC1Cc2nn(C)c(Cc3ccccc3Cl)c2-c2nc(Nc3cnn(C4CCN(CCO)CC4)c3)ncc21` (stereo not drawn) [IV-9c] was tested. Which EC50 did it give?
**A.** < 3 µM

**Q.** How did the EC50 turn out when `COc1cc(C(=O)NC2CCN(C)CC2)ccc1Nc1ncc2c(n1)-c1c(nn(C)c1-c1ccccc1Cl)CC2` [Compound I-112, 4-[[9-(2-chlorophenyl)-8-methyl-5,6-dihydropyrazolo[3,4-h]quinazolin-2-yl]amino]-3-methoxy-N-(1-methylpiperidin-4-yl)benzamide] was run?
**A.** < 3 µM

**Q.** For `COc1cc(C(=O)NC2CCN(C)CC2)ccc1Nc1ncc2c(n1)-c1c(nn(C)c1-c1sccc1C)CC2` [III-105], which EC50 is on record?
**A.** < 3 µM

**Q.** `CCn1ccc(Nc2ncc3c(n2)-c2c(nn(C)c2-c2ccccc2Cl)CC3)n1` [Compound I-30, 9-(2-chlorophenyl)-N-(1-ethylpyrazol-3-yl)-8-methyl-5,6-dihydropyrazolo[3,4-h]quinazolin-2-amine] was tested. Which EC50 did it give?
**A.** < 3 µM

**Q.** With `Cc1cccc(-c2c3c(nn2C)CCc2cnc(Nc4ccccc4)nc2-3)c1Cl` [Compound I-147] as the compound, how does the EC50 read?
**A.** < 3 µM

**Q.** How did the EC50 turn out when `CCn1ccc(Nc2ncc3c(n2)-c2c(nn(C)c2-c2sccc2C)CC3)n1` [Compound I-172] was run?
**A.** < 3 µM

**Q.** `CCn1ccc(Nc2ncc3c(n2)-c2c(nn(C)c2-c2cccc(OC)c2)CC3)n1` [Compound I-293] was tested. Which EC50 did it give?
**A.** < 3 µM

**Q.** For `CC1Cc2nn(C)c(-c3ccccc3Cl)c2-c2nc(Nc3ccn(C(C)C)n3)ncc21` (racemic) [Compound I-40, 9-(2-chlorophenyl)-5,8-dimethyl-N-(1-propane-2-ylpyrazol-3-yl)-5,6-dihydropyrazolo[3,4-h]quinazolin-2-amine], which EC50 is on record?
**A.** < 3 µM

**Q.** With `Cc1cc(Nc2ncc3c(n2)-c2c(nn(C)c2-c2ccccc2Cl)CC3)nn1C` [Compound I-109] as the compound, how does the EC50 read?
**A.** < 3 µM

**Q.** Which EC50 does the source give for `COCCn1ccc(Nc2ncc3c(n2)-c2c(nn(C)c2-c2ccc(Cl)cc2)CC3)n1` [Compound I-171, 9-(4-chlorophenyl)-N-[1-(2-methoxyethyl)pyrazol-3-yl]-8-methyl-5,6-dihydropyrazolo[3,4-h]quinazolin-2-amine] here?
**A.** < 3 µM

**Q.** `CC1Cc2nn(C)c(Cc3ccccc3Cl)c2-c2nc(Nc3cnn(C4CCN(C5CCOCC5)CC4)c3)ncc21` (stereo not drawn) [IV-9a] was tested. Which EC50 did it give?
**A.** < 3 µM

**Q.** `COc1cc(N2CCN(C)CC2)ccc1Nc1ncc2c(n1)-c1c(nn(C)c1-c1ccccc1Cl)CC2C` (racemic) [Compound I-97, 9-(2-chlorophenyl)-N-[2-methoxy-4-(4-methylpiperazin-1-yl)phenyl]-5,8-dimethyl-5,6-dihydropyrazolo[3,4-h]quinazolin-2-amine] was tested. Which EC50 did it give?
**A.** < 3 µM
